Assay results from patent US20260364038A1, “VASODILATOR, NITRIC OXIDE SYNTHASE PRODUCTION PROMOTER, AND USE OF SAME” (J-OIL MILLS, INC., priority 2022, published 2026).
Read-outs that look alike come from different tables or passages of the source.

How the values were obtained:
[1] = system: endothelial nitric oxide synthase (eNOS) genetic expression in HUVECs; assay: Relative eNOS genetic expression amount in HUVECs (OneStep real-time RT-PCR, Taqman probe, ddCt method); assay type: cell-based; conditions: 24 hours; for Relative eNOS genetic expression amount, Significant difference: vs control example 1, Dunnett's test; for action for promoting production of endothelial nitric oxide synthase (conclusion in words): 30 μM; for fold induction at 30 µM / fold induction at 1 µM: Homo sapiens, HUVEC
Method: HUVECs (made by Lonza; catalog no.: C2519AS)
EGM-2 (made by Lonza; catalog no.: CC-3162)
The substances under test in (1) to (3) below were each dissolved in dimethyl sulfoxide (DMSO) (made by Nacalai Tesque) to prepare solutions having a concentration of 30 mM, and the solutions were added to the culture medium at a 1/1000 proportion to prepare culture media in which the target final concentration of the respective substances under test was 30 μM (Examples 1 to 3).
• (1) Tetradecanoic acid (C14:0) (purity: 100%; made by Sigma-Aldrich) • (2) Pentadecanoic acid (C15:0) (purity: 98.8%; made by Sigma-Aldrich) • (3) Tridecanoic acid (C13:0) (purity: 99.2%; made by Sigma-Aldrich) • (4) Fluvastatin (made by Tokyo Chemical Industry Co., Ltd.; model no.: F0820)
The HUVECs were thawed in a T75 flask and cultured in a CO2 incubator (“SCA-165DRS” made by Astec Co., Ltd.; conditions: 37 °C, 5% CO2, humid; same below) using the EGM-2. The cells were isolated using a 0.05% concentration trypsin solution (“Trypsin-EDTA (0.05%), phenol red” made by Thermo Fisher Scientific; catalog no.: 25300054), sown in a 96-well plate using the culture medium, and cultured in the CO2 incubator. The next day, the culture medium was replaced with the culture media prepared in section “(3. Preparation of substances under test)” above, and the cells were then cultured for 24 hours in the CO2 incubator to carry out treatment using the substances under test.
[5. RNA Extraction, qPCR]
After the treatment, a culture medium supernatant was recovered, RNA was extracted from the cells using a FastLane Cell Probe kit (made by QIAGEN; catalog no.: 215011), OneStep real-time RT-PCR was carried out using a Taqman probe, and the relative eNOS genetic expression amount was calculated by means of the ddCt method. The relative eNOS genetic expression amount was derived by dividing the eNOS genetic expression amount by the GAPDH genetic expression amount.
A significant difference between the substance-under-test treatment groups (control example 2 and the examples) and control example 1 was certified by means of Dunnett's test.

[2] = system: endothelial nitric oxide synthase; conditions: positive control; stated as known; cited from earlier work
[3] = 30 μM final concentration, average of n1-n5, control example 1 (none added) = 1.00, read-out: Relative eNOS genetic expression amount, Average value of n1-n5
[4] = 30 μM final concentration, replicate n1, eNOS/GAPDH, relative to control example 1, read-out: Relative eNOS genetic expression amount, n1
[5] = 30 μM final concentration, replicate n2, eNOS/GAPDH, relative to control example 1, read-out: Relative eNOS genetic expression amount, n2
[6] = 30 μM final concentration, replicate n3, eNOS/GAPDH, relative to control example 1, read-out: Relative eNOS genetic expression amount, n3
[7] = 30 μM final concentration, replicate n4, eNOS/GAPDH, relative to control example 1, read-out: Relative eNOS genetic expression amount, n4
[8] = 30 μM final concentration, replicate n5, eNOS/GAPDH, relative to control example 1, read-out: Relative eNOS genetic expression amount, n5

SMILES | Relative eNOS genetic expression amount, Significant difference ([1]; 30 μM final concentration) | action for promoting production of endothelial nitric oxide synthase (conclusion in words) [1] | fold induction at 30 µM [1, 3] | fold induction at 30 µM [1, 4] | fold induction at 30 µM [1, 5] | fold induction at 30 µM [1, 6] | fold induction at 30 µM [1, 7] | fold induction at 30 µM [1, 8] | Relative eNOS genetic expression amount (in words) ([1]; 1 μM (control example 2), compared with control example 1) | Relative eNOS genetic expression amount, Significant difference ([1]; 1 μM final concentration (positive control)) | fold induction at 1 µM ([1]; 1 μM final concentration (positive control), average of n1-n5, control example 1 (none added) = 1.00, read-out: Relative eNOS genetic expression amount, Average value of n1-n5) | fold induction at 1 µM ([1]; 1 μM final concentration (positive control), replicate n1, eNOS/GAPDH, relative to control example 1, read-out: Relative eNOS genetic expression amount, n1) | fold induction at 1 µM ([1]; 1 μM final concentration (positive control), replicate n2, eNOS/GAPDH, relative to control example 1, read-out: Relative eNOS genetic expression amount, n2) | fold induction at 1 µM ([1]; 1 μM final concentration (positive control), replicate n3, eNOS/GAPDH, relative to control example 1, read-out: Relative eNOS genetic expression amount, n3) | fold induction at 1 µM ([1]; 1 μM final concentration (positive control), replicate n4, eNOS/GAPDH, relative to control example 1, read-out: Relative eNOS genetic expression amount, n4) | fold induction at 1 µM ([1]; 1 μM final concentration (positive control), replicate n5, eNOS/GAPDH, relative to control example 1, read-out: Relative eNOS genetic expression amount, n5) | known action for promoting the production of endothelial nitric oxide synthase [2]
CCCCCCCCCCCCCC(=O)O [Example 1, Tetradecanoic acid] | ** (Level of significance across both sides: 1%) | have an action for promoting production of endothelial nitric oxide synthase | 1.26 | 1.27 | 1.26 | 1.31 | 1.12 | 1.33 | – | – | – | – | – | – | – | – | –
CCCCCCCCCCCCCCC(=O)O [Example 2, Pentadecanoic acid] | ** (Level of significance across both sides: 1%) | have an action for promoting production of endothelial nitric oxide synthase | 1.26 | 1.15 | 1.28 | 1.2 | 1.36 | 1.3 | – | – | – | – | – | – | – | – | –
CCCCCCCCCCCCC(=O)O [Example 3, Tridecanoic acid] | ** (Level of significance across both sides: 1%) | have an action for promoting production of endothelial nitric oxide synthase | 1.25 | 1.15 | 1.33 | 1.26 | 1.28 | 1.24 | – | – | – | – | – | – | – | – | –
CC(C)n1c(/C=C/C(O)CC(O)CC(=O)O)c(-c2ccc(F)cc2)c2ccccc21 (stereo not drawn) [Fluvastatin, reference compound] | – | – | – | – | – | – | – | – | significantly higher than that in control example 1 | ** (Level of significance across both sides: 1%) | 2.62 | 2.45 | 2.57 | 2.57 | 2.89 | 2.61 | known to have an action for promoting the production of endothelial nitric oxide synthase
